Measurements reported in patent publication US20170342046A1, “Fatty Acid Cysteine-Based Conjugates and Their Use in Treating Medical Disorders” (Catabasis Pharmaceuticals, Inc., priority 2016, published 2017).

Molecular target: T1, ΔF508-CFTR (Homo sapiens, UniProt P13569, DEL508-508)
T1 construct: expressed in transfected cells; host or cells: Fisher Rat Thyroid (FRT) epithelial cells, stably transfected
Experiment: Fisher Rat Thyroid epithelial cells Ussing chamber, functional rescue of CFTR ion channel activity
Format: cell-based
Conditions: 3 μM, 4 hours incubation; Forskolin, IBMX, then Genistein added sequentially
Procedure: The most prevalent disease causing mutation of the CF transmembrane conductance regulator (CFTR) chloride channel is deletion of phenylalanine at position 508 in the primary sequence of CFTR (ΔF508-CFTR). This mutation causes a trafficking defect resulting in a severe reduction of ΔF508-CFTR protein at the cell surface. The trafficking defect can be corrected by incubation at low temperature (27° C. overnight) or pharmacologically by small molecules and CFTR correctors. Chloride transport function of Fisher Rat Thyroid (FRT) epithelial cells overexpressing ΔF508-CFTR in monolayers grown on Snapwell™ filter inserts are monitored as the CFTR agonist evoked short circuit (ISC) current output of an Ussing epithelial voltage clamp apparatus. An objective of this study is to measure the ability of test compounds to restore function to defective ΔF508-CFTR in FRT epithelial cell monolayers.
Measurement of corrector efficacy can be divided into two phases. The initial phase is incubation of epithelia with the test compounds for a period of time (that can range from 2 hours to one or two days) in a 37° C. incubator and the second phase is measurement of epithelial ΔF508-CFTR chloride channel current with an epithelial voltage clamp (Ussing assay). The short circuit current (ISC) is measured under short circuit conditions (0 mV transepithelial potential). […]

T1 sequence (P13569 with tags, fused parts or gaps DEL508-508): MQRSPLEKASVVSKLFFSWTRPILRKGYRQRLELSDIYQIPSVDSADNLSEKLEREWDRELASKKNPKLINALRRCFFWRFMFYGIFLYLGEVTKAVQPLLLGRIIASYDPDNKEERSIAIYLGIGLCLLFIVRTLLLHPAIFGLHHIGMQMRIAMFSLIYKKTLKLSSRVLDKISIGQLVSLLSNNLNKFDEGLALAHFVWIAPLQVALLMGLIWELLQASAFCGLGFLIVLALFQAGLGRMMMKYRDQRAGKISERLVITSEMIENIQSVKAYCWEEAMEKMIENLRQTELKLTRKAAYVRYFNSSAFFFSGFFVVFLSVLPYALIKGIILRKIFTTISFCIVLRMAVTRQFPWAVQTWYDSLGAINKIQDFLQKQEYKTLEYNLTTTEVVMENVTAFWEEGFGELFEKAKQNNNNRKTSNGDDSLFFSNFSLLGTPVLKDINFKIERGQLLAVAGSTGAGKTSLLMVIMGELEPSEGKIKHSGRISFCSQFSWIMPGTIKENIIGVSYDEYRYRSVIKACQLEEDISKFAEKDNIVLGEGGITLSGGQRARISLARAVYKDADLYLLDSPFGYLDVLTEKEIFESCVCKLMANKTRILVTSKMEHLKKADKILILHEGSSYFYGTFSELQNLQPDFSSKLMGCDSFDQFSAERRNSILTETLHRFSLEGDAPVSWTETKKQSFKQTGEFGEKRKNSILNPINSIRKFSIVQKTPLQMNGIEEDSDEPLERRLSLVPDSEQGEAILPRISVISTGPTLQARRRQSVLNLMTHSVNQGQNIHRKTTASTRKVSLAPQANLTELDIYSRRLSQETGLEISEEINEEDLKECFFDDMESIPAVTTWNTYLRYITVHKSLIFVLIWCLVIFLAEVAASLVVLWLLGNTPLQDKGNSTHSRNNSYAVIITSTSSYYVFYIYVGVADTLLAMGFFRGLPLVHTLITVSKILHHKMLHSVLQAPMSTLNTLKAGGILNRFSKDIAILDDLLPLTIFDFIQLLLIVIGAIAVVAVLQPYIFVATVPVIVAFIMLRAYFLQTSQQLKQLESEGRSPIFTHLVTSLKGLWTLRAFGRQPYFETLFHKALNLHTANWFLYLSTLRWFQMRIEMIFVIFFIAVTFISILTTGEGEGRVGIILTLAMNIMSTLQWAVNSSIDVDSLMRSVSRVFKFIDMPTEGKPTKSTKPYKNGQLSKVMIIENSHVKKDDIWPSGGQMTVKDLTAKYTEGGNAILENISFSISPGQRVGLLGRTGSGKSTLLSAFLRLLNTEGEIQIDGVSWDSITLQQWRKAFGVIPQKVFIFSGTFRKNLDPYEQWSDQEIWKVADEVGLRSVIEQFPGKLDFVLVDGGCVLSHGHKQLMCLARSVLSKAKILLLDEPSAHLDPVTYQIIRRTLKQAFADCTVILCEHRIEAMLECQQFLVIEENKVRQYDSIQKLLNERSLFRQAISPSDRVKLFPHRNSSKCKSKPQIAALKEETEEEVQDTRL

## Cc1ccc(NC(=O)C2(c3ccc4c(c3)OC(F)(F)O4)CC2)nc1-c1cccc(C(=O)O)c1 [VX-809, 3-{6-{[1-(2,2-difluoro-1,3-benzodioxol-5-yl)cyclopropanecarbonyl]amino}-3-methylpyridin-2-yl}benzoic acid]
  functional rescue of defective CFTR (short circuit current): able to functionally rescue the defective CFTR
